The supplement of paper PMC10307832

Tests used:
Assay in all cases: relative viability (nuclei count vs DMSO), 5 days (fraction); higher = more cells survive
[1] = compound: COC1=CC(c2cc3ccccc3[nH]2)=N/C1=C\c1[nH]c(C)cc1C [Obatoclax] + N=C(N)NC(=N)NCCc1ccccc1 [Phenformin] (partner 250 µM)
In short: (§1)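 Five library-drug doses in √10 steps were combined with a fixed anchor-drug dose, or a single drug was given alone, by pin tool to lung cancer cell lines in 1536-well plates the day after seeding. Nuclei were stained and counted after 5 days. Relative viability is the nuclei count in treated wells over that in vehicle wells, taken as the median of duplicate plates.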

[2] = compound: COC1=CC(c2cc3ccccc3[nH]2)=N/C1=C\c1[nH]c(C)cc1C [Obatoclax] + CS(=O)(=O)CCNCc1ccc(-c2ccc3ncnc(Nc4ccc(OCc5cccc(F)c5)c(Cl)c4)c3c2)o1 [Lapatinib] (partner 2 µM)
In short: as §1

[3] = compound: COC1=CC(c2cc3ccccc3[nH]2)=N/C1=C\c1[nH]c(C)cc1C [Obatoclax] + CS(=O)(=O)N1CCN(Cc2cc3nc(-c4cccc5[nH]ncc45)nc(N4CCOCC4)c3s2)CC1 [Pictilisib] (partner 1 µM)
In short: as §1

[4] = compound: COC1=CC(c2cc3ccccc3[nH]2)=N/C1=C\c1[nH]c(C)cc1C [Obatoclax] + Cc1cc(Nc2cc(N3CCN(C)CC3)nc(Sc3ccc(NC(=O)C4CC4)cc3)n2)n[nH]1 [Tozasertib] (partner 0.1 µM)
In short: as §1

Row | Cell Line | relative viability ([1]; first compound 0.01 µM) | relative viability ([1]; first compound 0.03162 µM) | relative viability ([1]; first compound 0.1 µM) | relative viability ([1]; first compound 0.3162 µM) | relative viability ([1]; first compound 1 µM) | relative viability ([2]; first compound 0.01 µM) | relative viability ([2]; first compound 0.03162 µM) | relative viability ([2]; first compound 0.1 µM) | relative viability ([2]; first compound 0.3162 µM) | relative viability ([2]; first compound 1 µM) | relative viability ([3]; first compound 0.01 µM) | relative viability ([3]; first compound 0.03162 µM) | relative viability ([3]; first compound 0.1 µM) | relative viability ([3]; first compound 0.3162 µM) | relative viability ([3]; first compound 1 µM) | relative viability ([4]; first compound 0.01 µM) | relative viability ([4]; first compound 0.03162 µM) | relative viability ([4]; first compound 0.1 µM) | relative viability ([4]; first compound 0.3162 µM) | relative viability ([4]; first compound 1 µM)
1 | 201T | 0.434 | 0.457 | 0.43 | 0.399 | 0.463 | 1.08 | 0.789 | 0.94 | 1.01 | 0.97 | 0.679 | 0.648 | 0.741 | 0.678 | 0.687 | 0.896 | 0.94 | 0.93 | 0.876 | 1.04
2 | LC-2-ad | 0.637 | 0.49 | 0.541 | 0.585 | 0.499 | 0.977 | 0.906 | 0.802 | 0.817 | 0.867 | 0.497 | 0.563 | 0.602 | 0.357 | 0.154 | 0.465 | 0.422 | 0.44 | 0.387 | 0.355
3 | NCI-H596 | 0.768 | 0.764 | 0.741 | 0.711 | 0.583 | 0.941 | 0.951 | 0.827 | 0.643 | 0.503 | 0.416 | 0.357 | 0.365 | 0.359 | 0.296 | 0.911 | 0.915 | 0.837 | 0.564 | 0.597
4 | NCI-H1437 | 0.242 | 0.317 | 0.314 | 0.296 | 0.246 | 0.755 | 0.859 | 0.712 | 0.707 | 0.433 | 0.374 | 0.436 | 0.495 | 0.452 | 0.378 | 0.414 | 0.439 | 0.437 | 0.457 | 0.521
5 | NCI-H727 | 0.692 | 0.499 | 0.552 | 0.529 | 0.517 | 0.949 | 0.792 | 0.798 | 0.715 | 0.457 | 0.33 | 0.456 | 0.701 | 0.339 | 0.253 | 0.581 | 0.58 | 0.755 | 0.509 | 0.707
6 | PC-3 [JPC-3] | 0.477 | 0.486 | 0.511 | 0.473 | 0.489 | 0.456 | 0.406 | 0.469 | 0.443 | 0.457 | 0.794 | 0.676 | 0.819 | 0.685 | 0.834 | 0.913 | 0.85 | 0.87 | 0.81 | 0.859
7 | SW 1573 | 0.333 | 0.31 | 0.282 | 0.24 | 0.153 | 1.06 | 1.16 | 1.31 | 1.13 | 0.559 | 0.466 | 0.539 | 0.506 | 0.44 | 0.519 | 0.222 | 0.208 | 0.145 | 0.143 | 0.129
8 | NCI-H2228 | 0.339 | 0.387 | 0.3 | 0.285 | 0.159 | 1.04 | 0.826 | 0.986 | 0.627 | 0.335 | 0.278 | 0.419 | 0.384 | 0.294 | 0.174 | 0.278 | 0.318 | 0.29 | 0.257 | 0.21
9 | NCI-H1650 | 0.429 | 0.427 | 0.494 | 0.449 | 0.295 | 0.849 | 0.657 | 0.698 | 0.418 | 0.302 | 0.572 | 0.749 | 0.571 | 0.412 | 0.315 | 0.417 | 0.358 | 0.425 | 0.275 | 0.266
10 | NCI-H1792 | 0.371 |  |  | 0.176 | 0.0627 | 0.945 | 0.796 |  | 0.869 | 0.885 | 0.31 | 0.26 |  | 0.281 | 0.377 |  |  |  |  | 
11 | Calu-6 |  |  |  |  |  | 1.03 | 1.09 | 1.04 | 0.842 | 0.244 | 0.91 | 0.963 | 0.731 | 0.491 | 0.105 |  |  |  |  | 
12 | LCLC-103H | 0.317 | 0.28 | 0.327 | 0.321 | 0.34 |  |  |  |  |  | 0.602 | 0.565 | 0.719 | 0.612 | 0.65 | 0.498 | 0.472 | 0.505 | 0.477 | 0.553
13 | NCI-H2342 | 0.744 | 0.573 | 0.737 | 0.48 | 0.584 |  |  |  |  |  |  |  |  |  |  | 0.516 | 0.594 | 0.656 | 0.587 | 0.633
14 | NCI-H1299 |  |  |  |  |  | 0.911 | 0.977 | 0.932 | 0.881 | 0.308 | 0.74 | 0.937 | 0.637 | 0.447 | 0.129 |  |  |  |  | 
15 | ChaGo-K-1 | 0.511 | 0.506 | 0.444 | 0.462 | 0.527 |  |  |  |  |  | 0.77 | 0.504 |  | 0.675 | 0.877 | 0.247 | 0.24 | 0.243 | 0.24 | 0.235
16 | NCI-H1703 |  |  |  |  |  | 1 | 1.46 | 1.1 | 0.437 | 0.405 | 0.263 | 0.221 | 0.216 | 0.203 | 0.2 |  |  |  |  | 
17 | NCI-H522 | 0.614 | 0.62 | 0.633 | 0.688 | 0.603 |  |  |  |  |  |  |  |  |  |  | 0.656 | 0.429 | 0.605 | 0.545 | 0.539
18 | NCI-H1623 | 0.626 | 0.578 | 0.515 | 0.598 | 0.568 |  |  |  |  |  |  |  |  |  |  | 0.428 | 0.422 | 0.426 | 0.451 | 0.38
19 | IA-LM |  |  |  |  |  | 0.631 | 0.872 | 0.454 | 0.135 | 0.114 | 0.345 | 0.326 | 0.315 | 0.113 | 0.0716 |  |  |  |  | 
20 | NCI-H1563 | 0.621 | 0.696 | 0.629 | 0.683 | 0.586 | 0.902 | 1.16 | 0.955 | 0.794 | 0.711 | 0.615 | 0.639 | 0.644 | 0.655 | 0.634 |  |  |  |  | 
21 | NCI-H441 | 0.664 | 0.79 | 0.771 | 0.614 | 0.475 |  |  |  |  |  | 0.442 | 0.451 | 0.412 | 0.338 | 0.348 | 0.497 | 0.677 | 0.666 | 0.52 | 0.385
22 | NCI-H1648 |  |  |  |  |  |  |  |  |  |  |  |  |  |  |  | 0.515 | 0.499 | 1.01 | 0.465 | 0.361
